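Interpolation was linear, between the two tested concentrations surrounding the appropriate level; five concentrations were tested over 48 hours in 96-well plates. The concentration for 50% growth inhibition is given as GI50. TGI: concentration producing complete growth inhibition.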
Assays:
Assay in all cases: DTP human tumour cell line panel, 48 h
[1] = system: SR leukemia
[2] = system: HCC-2998 colon
[3] = system: OVCAR-8 ovarian
[4] = system: UACC-257 melanoma
[5] = system: CCRF-CEM leukemia
[6] = system: SK-MEL-5 melanoma
[7] = system: SW-620 colon
[8] = system: 786-0 renal
[9] = system: K-562 leukemia
[10] = system: HS 578T breast

SMILES	GI50 [1]	TGI [1]	GI50 [2]	TGI [2]	GI50 [3]	TGI [3]	GI50 [4]	TGI [4]	GI50 [5]	TGI [5]	GI50 [6]	TGI [6]	GI50 [7]	TGI [7]	TGI [8]	TGI [9]	TGI [10]	GI50 [10]
COC(=O)c1cc2c3c(cc(O)c2[nH]1)N(C(=O)C1Cc2cc(OC)c(OC)c(OC)c2N1)CC3CCl (stereo unspecified)	< 10 nM	> 100 µM	< 10 nM	0.113 µM	< 10 nM	0.014 µM	< 10 nM	< 0.01 µM	< 10 nM	> 100 µM	< 10 nM	< 0.01 µM	< 10 nM	0.132 µM				
Cn1c2ccccc2n2c(=O)c3cccnc3c(C#N)c12						> 100 µM		> 100 µM				> 100 µM		> 100 µM	> 100 µM			
S=C(c1c[nH]c2ccccc12)N1CCN(c2ccccc2)CC1		> 100 µM				> 100 µM		> 100 µM		> 100 µM		> 100 µM		> 100 µM	> 100 µM	> 100 µM	38.3 µM	
Fc1cc(-c2ncc(Cl)cc2Cl)c2cccccc1-2				> 100 µM		> 100 µM		> 100 µM				> 100 µM			> 100 µM		> 100 µM	
CC(=N/NC(=S)N1CCCCC1)/C(C)=N\NC(=S)N1CCCCC1				3.48 µM				4.09 µM				3.07 µM			3.1 µM	6.89 µM	5.76 µM	
COc1cc(C(=O)Nc2c3ccccc3nc3ccccc23)cc(OC)c1OC				> 100 µM		> 100 µM		> 100 µM		> 100 µM		> 100 µM		> 100 µM	> 100 µM	> 100 µM	> 100 µM	
Nc1nc(N)c2nc(-c3ccco3)cnc2n1		> 100 µM		> 100 µM		> 100 µM		> 100 µM		> 100 µM		> 100 µM			> 100 µM	> 100 µM		
COc1cc(/C=C2\CN(S(=O)(=O)c3ccc(C)cc3)C/C(=C\c3cc(CN4CCCCC4)c(O)c(OC)c3)C2=O)cc(CN2CCCCC2)c1O			1780 nM	3.37 µM			1450 nM	3.02 µM	307 nM	1.13 µM	1810 nM	3.47 µM					4.5 µM	1920 nM
Cc1ccc2cccc3c2c1CC1(C3=O)S(=O)(=O)OCCOS1(=O)=O				> 100 µM		> 100 µM		> 100 µM		> 100 µM		> 100 µM		> 100 µM	> 100 µM	> 100 µM	> 100 µM	
O=C1/C(=C/c2cccs2)NC(=S)N1CN1CCOCC1		> 100 µM				> 100 µM		> 100 µM		> 100 µM		> 100 µM		> 100 µM	> 100 µM	> 100 µM	> 100 µM	
O=C1CC(c2ccc[nH]2)=NN1c1ccccc1						> 100 µM		> 100 µM		> 100 µM		> 100 µM		> 100 µM	> 100 µM	> 100 µM		
Cc1ccc(/C=N/NC2=NCCN2)s1				> 100 µM		> 100 µM		> 100 µM				> 100 µM		> 100 µM	> 100 µM	> 100 µM	> 100 µM	
CCOC(=O)c1cc(=O)oc2c1N(C)c1ncccc1N2		> 100 µM		> 100 µM		> 100 µM		> 100 µM						> 100 µM	> 100 µM	> 100 µM	> 100 µM	
O=C(O)c1cc(O)c2c(c1)Cc1cccc(O)c1C2=O		66.8 µM		> 100 µM		55.8 µM		67 µM		> 100 µM		40 µM		> 100 µM	92.2 µM	> 100 µM		
CC1(C)N=C(/C=N/O)C(C)(C)N1O		> 100 µM		> 100 µM		> 100 µM				> 100 µM		> 100 µM		> 100 µM	> 100 µM	> 100 µM	> 100 µM	
C=Cc1cc2c(cc1O)CC[C@@H]1[C@@H]2CC[C@]2(C)[C@@H](O)CC[C@@H]12		8.4 µM		25.4 µM				8.87 µM		17.2 µM		15.7 µM		14.2 µM	14.3 µM	20.4 µM		
Clc1ccc2c(NCCNc3ccnc4cc(Cl)ccc34)ccnc2c1				28.5 µM		43.1 µM		32.3 µM		46.2 µM		38.1 µM		31.3 µM	28.2 µM	28.2 µM	> 100 µM	
CN[C@@H](C)[C@H](OP(=O)(O)OC1[C@@H](O)[C@H](O)C(O)[C@H](O)[C@@H]1O)c1ccccc1 (stereo partly specified)				> 100 µM		> 100 µM		> 100 µM		> 100 µM		> 100 µM		> 100 µM	> 100 µM		> 100 µM	

From PubChem BioAssay (NCI)
